# Assay results reported in PubChem BioAssay (NCI).
# Where “and” joins values, the source holds several entries; their conditions need not be identical. Identical values can stand only once.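 In this assay, cells in 96-well plates receive the compound at five concentrations for 48 hours. Endpoints are linearly interpolated between the surrounding concentrations. GI50 is the concentration that inhibits growth by half. At the TGI there is no net growth.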
# Columns and labels:
# Test in all cases: NCI anticancer screen, dose series, 48 h
# [1] = test system: HOP-92 NSCLC
# [2] = test system: OVCAR-5 ovarian
# [3] = test system: HCT-15 colon
# [4] = test system: UACC-257 melanoma
# [5] = test system: SW-620 colon
# [6] = test system: HCT-116 colon
# [7] = test system: LXFL 529 NSCLC
# [8] = test system: SR leukemia
# [9] = test system: MDA-MB-231 breast
Compound,GI50 [1],TGI [1],GI50 [2],TGI [2],GI50 [3],TGI [3],GI50 [4] [µM],TGI [4],GI50 [5] [µM],TGI [5],GI50 [6],TGI [6],TGI [7] [µM],GI50 [8] [µM],GI50 [9],TGI [9],TGI [8] [µM]
CO[C@@]12[C@H](COC(N)=O)C3=C(C(=O)C(C)=C(N)C3=O)N1C[C@@H]1N[C@@H]12,1.81 µM and 1.75 µM,12.4 µM and 5.53 µM and 7.2 µM,2.69 µM and 1.65 µM,9.29 µM and 10.5 µM and 14 µM,1.92 µM and 1.67 µM,10.4 µM and 16.4 µM and 43.4 µM,2.16,5.17 µM and 7.79 µM and 11.2 µM,0.665,13 µM and 9.44 µM and 24.2 µM,1.26 µM and 1.15 µM,6.06 µM and 4.21 µM and 8.46 µM,7.53,0.0345,17.5 µM and 9.42 µM,16.8 µM and 25 µM and 56.3 µM,–
CCOC(CN(C)C(=O)OCC(Cl)(Cl)Cl)OCC,–,> 100 µM,–,> 100 µM,–,> 100 µM,–,> 100 µM,–,> 100 µM,–,> 100 µM,–,–,–,> 100 µM,> 100
C/C=C/COc1cc(NC(=S)c2ccoc2C)ccc1OC,–,> 100 µM,–,> 100 µM,–,> 100 µM,–,> 100 µM,–,> 100 µM,–,> 100 µM,–,–,–,> 100 µM,> 100
C[n+]1ccc2[nH]c3ccccc3c2c1,–,> 100 µM,–,> 100 µM,–,> 100 µM,–,> 100 µM,–,> 100 µM,–,> 100 µM,> 100,–,–,–,–
NC(N)=N/N=C(/c1ccccc1)c1ccc(O)cc1O,–,> 100 µM,–,> 100 µM,–,> 100 µM,–,> 100 µM,–,> 100 µM,–,> 100 µM,–,–,–,> 100 µM,60.8
COC(=O)c1cccc2c1Oc1ccccc1S2,–,> 100 µM,–,> 100 µM,–,> 100 µM,–,> 100 µM,–,> 100 µM,–,> 100 µM,–,–,–,> 100 µM,> 100
CSc1ccc(C(=O)/C=C/c2ccc(F)cc2)cc1,75.9 µM,> 100 µM,99.6 µM,> 100 µM,29.4 µM,> 100 µM,> 100,> 100 µM,24.8,70.8 µM,20.7 µM,36.6 µM,–,25.7,74.6 µM,> 100 µM,51.5
CN(/C(=N\O)c1ccccc1)c1ccccc1,–,62.5 µM,–,> 100 µM,–,–,–,> 100 µM,–,> 100 µM,–,> 100 µM,> 100,–,–,–,75.4
